According to US10494397B2, “Rebaudioside analogs” (PepsiCo, Inc., priority 2016, dated 2019):

Experiments:
Format in all cases: in vivo, human
[1] = tested on: Trained Sensory panelists; test: Sucrose Equivalence Value, paired comparison with 1.5% sucrose; conditions: 25 ppm in aqueous phosphoric acid (pH 3.1), room temperature; p<0.0001
Description: (§1) Trained Sensory panelists (n=25, 3 evaluations each) evaluated Reb B Galactoside in aqueous phosphoric acid (pH 3.1) at room temperature. Rebaudioside B galactoside is not currently approved for use in food or beverages in the United States. Therefore, every person who tasted the samples signed an informed consent form provided by PepsiCo Scientific Affairs before tasting samples. Participation in the tests was completely voluntary. Panelists who chose to participate could choose to stop participation at any time. In order for a test ingredient to be considered an enhancer, it must not be considered a sweetener.

[2] = tested on: Trained Sensory panelists; test: Sweet enhancement ranking test (4 samples ranked from least sweet to most sweet)
Description: as §1, with “Panelists were asked” for “In order for a test ingredient”, “rank 4 samples from least sweet to most sweet, with 1=least sweet and 4=most sweet As shown in FIGS. 1-3, Enhancement of Reb A, high-fructose corn syrup and sucrose were observed.” for “be considered an enhancer, it must not be considered a sweetener.”

Tasters = test: Sensory evaluation of test material as a sweetener (taster panel, scale of 1 to 10); set-up: key: not observed or only minimally observed (−); highly observed (+++)
Description: Sample preparation protocol for testing material as a sweetener: Tasters wore noseclips and were blinded to the identity of the test material. Tasters sampled 400 ppm Rebaudioside A and 6.5 Brix sucrose prior to the test material. Reb A 400 ppm was assigned a 5 on the scale of 1 to 10 as shown in FIG. 8 and sucrose (6.5%) was assigned a 10 on the same scale. Tasters were asked to rinse their mouths 5 times with water between tasting each sample. Tasters were then given the test article and asked to rank the test article for sweetness on the noted scale. Tasters were also asked to provide comments about bitterness, linger, flavors, and any other perceptions.
Numerical scores from all tasters were averaged and, taken together with comments regarding sweet quality, bitterness and off-tastes, converted into the symbols “−,” “+,” “++,” and “+++” to indicate whether a given characteristic was not observed or only minimally observed (−) or highly observed (+++). For example, a sample having a “−” in both sweet intensity and bitterness should be understood as a sample having minimal or no sweetness and minimal or no bitter flavor. By contrast, a sample having a “+++” in both sweet intensity and bitterness should be understood as a sample having highly observed sweet intensity and bitterness.
Preparation of Reb A in this experiment: Prepare 400 ppm Reb A in water (pH=7): 40 mg of Rebaudioside A was dissolved with stirring in 100 ml of water at room temperature.
Preparation of Sucrose in this experiment: Prepare 6.5% Sucrose in water (pH=7): weight 6.5 gr of Sucrose and dissolve it in 93.5 gr water (total 100 gr)
• Sweet quality was based upon a temporal profile (sweet onset, linger) and attributes such as syrupy, round, clean.

## C=C1C[C@@]23CC[C@H]4[C@@](C)(CCC[C@@]4(C)C(=O)O[C@@H]4O[C@H](CO)[C@H](O)[C@H](O)[C@H]4O)[C@@H]2CC[C@]1(O[C@@H]1O[C@H](CO)[C@@H](O)[C@H](O[C@@H]2O[C@H](CO)[C@@H](O)[C@H](O)[C@H]2O)[C@H]1O[C@@H]1O[C@H](CO)[C@@H](O)[C@H](O)[C@H]1O)C3 [Compound 7D, Rebaudioside B Galactoside]
[1]
  Sucrose Equivalence Value (sweetness compared with 1.5% sucrose): < 1.5 % sucrose
[2]; 25 ppm added to HFCS, FIG. 2
  Enhancement of sweetness of High-Fructose Corn Syrup (HFCS): enhances the sweetness
[2]; 25 ppm added to Rebaudioside A, FIG. 1
  Enhancement of sweetness of Rebaudioside A: enhances the sweetness
[2]; 25 ppm added to sucrose, FIG. 3
  Enhancement of sweetness of sucrose: enhances the sweetness
Tasters; averaged taster scores, scale 1 to 10 with Reb A 400 ppm = 5 and sucrose 6.5% = 10, noseclips, blinded
  Sweet Intensity: +++
Tasters; taster comments and scores converted into symbols
  Bitterness: −
